From US9096547B2, “Sodium salt of 6-fluoro-3-hydroxy-2-pyrazine carboxamide” (Toyama Chemical Co., Ltd., priority 2010, dated 2015)

Tests used:
[1] = Stability (2): appearance after irradiation by a D65 lamp; type: physicochemical; conditions: irradiated (1,200,000 lx·hr) by a D65 lamp
Excerpt: The preparations of Examples 1, 10, 15, 16, 22 and Comparative Example 1 were irradiated (1,200,000 lx·hr) by a D65 lamp (FLR20S-D-EDL-D65/M) and then their appearance was observed.

[2] = Stability (1): appearance after standing at 60° C. for 1 month; type: physicochemical; conditions: stand still at 60° C. for 1 month
Method: The preparations of Examples 1, 7, 9, 10, 11, 12, 25, 28 and 29 were allowed to stand still at 60° C. for 1 month and then their appearance was observed.

With `NC(=O)c1nc(F)cnc1O.[Na]` [Example 1, sodium salt of 6-fluoro-3-hydroxy-2-pyrazinecarboxamide] the appearance change [1] was “appearance change was not observed” and the appearance change [2] was “appearance change was not observed”.
